Measured values published in patent US20090054455A1, “ARIPIPRAZOLE CO-CRYSTALS” (DR. REDDY'S LABORATORIES LTD., priority 2006, published 2009).

Legend:
[1] = Polymorphic stability on storage, checked by XRPD; type: physicochemical; conditions: stored 3 months in self-sealing polyethylene bag, normal atmospheric conditions, room temperature
Description: The process of the present invention provides stable co-crystals of aripiprazole with fumaric acid. The term “stable crystalline form” refers to stability of the crystalline form under the standard temperature and humidity conditions of testing of pharmaceutical products, wherein the stability is indicated by preservation of the original polymorphic form.
Aripiprazole was prepared according to the process given in Example 2 and was packaged in a self-sealing polyethylene bag. The material was stored for 3 months under normal atmospheric conditions at room temperature and checked for polymorphic stability.

[2] = cited from earlier work

polymorphic stability (maintenance of the original XRPD pattern) [1]	Compound	solubility in aqueous media [2]
retain its polymorphic form	O=C(O)C=CC(=O)O.O=C1CCc2ccc(OCCCCN3CCN(c4cccc(Cl)c4Cl)CC3)cc2N1.O=C1CCc2ccc(OCCCCN3CCN(c4cccc(Cl)c4Cl)CC3)cc2N1 [Example 2]	
	O=C1CCc2ccc(OCCCCN3CCN(c4cccc(Cl)c4Cl)CC3)cc2N1 [aripiprazole, 7-[4-[4-(2,3-dichlorophenyl)-1-piperazinyl]butoxy]-3,4-dihydrocarbostyril]	practically insoluble
